# Target: T1, human recombinant CRF-1 receptor (Homo sapiens, UniProt P34998)
# T1 construct: expressed in transfected cells; host or cells: CHO cells (G418-selected)
# T1 sequence (P34998 24-415): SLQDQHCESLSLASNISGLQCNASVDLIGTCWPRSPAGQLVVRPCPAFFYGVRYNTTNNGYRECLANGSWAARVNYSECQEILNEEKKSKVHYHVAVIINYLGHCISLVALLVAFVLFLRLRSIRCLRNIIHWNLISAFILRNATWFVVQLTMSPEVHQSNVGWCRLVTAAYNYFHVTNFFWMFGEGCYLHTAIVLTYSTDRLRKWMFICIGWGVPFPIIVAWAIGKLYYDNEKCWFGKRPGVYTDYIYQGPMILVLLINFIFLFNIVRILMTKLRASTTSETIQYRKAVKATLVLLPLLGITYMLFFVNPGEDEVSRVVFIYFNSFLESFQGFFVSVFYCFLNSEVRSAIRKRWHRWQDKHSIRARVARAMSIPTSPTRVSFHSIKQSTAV
# Experiment: CRF-1 receptor antagonism, HTRF cAMP assay in CHO cells in the presence of 1 nM CRF
# Assay type: cell-based
# Conditions: CHO cells expressing human recombinant CRF-1; inhibition of the effect of 1 nM CRF on cAMP
# Method: The CRF-1 or CRF-2α receptor antagonistic activity of the agents of the invention has been determined in vitro in the following assay:
# Chinese hamster ovary (CHO) cells expressing either the human recombinant CRF-1 or CRF-2a receptors (Chen et al., Proc Natl Acad Sci USA 90, 8967-8971, 1993; Liaw et al., Endocrinology 137, 72-77, 1996) are propagated in Dulbecco's modified Eagle medium supplemented with 10% foetal calf serum, non-essential amino acids, 100 U/ml penicillin, 100 mg/l streptomycin and 1 g/l geneticin (G418). For cyclic AMP determinations the Homogeneous Time-Resolved Fluoresce (HTRF) cAMP dynamic 2 kit (Cisbio International, France) was used as per manufacturers' instructions. CHO cells, previously cryopreserved, were thawed, centrifuged for 7 mins at 1200 rpm and resuspended in serum free media, then pipetted out onto clear bottomed black tissue culture treated 384-well microtitre plates (Corning Inc, US) at 2,000 cells per well. Compounds of the invention, prepared in DMSO, and subsequently diluted 50 fold in assay buffer (1× Hanks balanced salt solution, 0.2% (w/v) bovine serum albumin, 1.7 mM isobutylmethylxanthine and 10 mM Hepes, pH 7.4) are then added onto the cell containing plate where a further 2 fold dilution is performed and incubated for 15 min. Following incubation, buffer containing a 5 times final concentration of agonist is added to the plate and incubated for 30 min. Finally, d2 dye labelled cAMP and cryptate labeled anti-cAMP antibody, both made in lysis buffer, are added to the plate followed by a settling period of 1 hour. During the settling period cAMP produced by the cells competes with the d2 labelled cAMP for the anti-cAMP cryptate. The plate is read on the Pherastar (BMG, Germany). Increasing levels of endogenous cAMP produced by cells can be followed by a decrease of fluorescent signal and vice versa. Values represented by a change in arbitrary fluorescence units are converted into cAMP concentrations by use of a standard curve the reagents for which are supplied with the kit. Antagonist dose response curves (1 nM-30 μM) are constructed in the presence of 1 nM CRF. IC50 values of antagonists are calculated by fitting the percent inhibition of the effect of CRF by increasing concentrations of the antagonists. The fit is performed using the nonlinear logistic function of the Activitybase software package v 5.4.5.27 (IDBS, UK).
row,SMILES,IC50
1,"O=C(N[C@H]1CC[C@H](CNc2n[nH]c3ccc(F)cc23)CC1)c1cc(C(F)(F)F)ccc1Cl [Example 19.62, Trans-2-chloro-N-(4-((5-fluoro-1H-indazol-3-ylamino)methyl)cyclohexyl)-5-(trifluoromethyl) benzamide]",90 nM
2,"O=C(N[C@H]1CC[C@H](CNc2n[nH]c3cccc(F)c23)CC1)c1cc(C(F)(F)F)ccc1Cl [Example 19.63, Trans-2-chloro-N-(4-((4-fluoro-1H-indazol-3-ylamino)methyl)cyclohexyl)-5-(trifluoromethyl) benzamide]",17 nM
3,"Cc1cccc2[nH]nc(NC[C@H]3CC[C@H](NC(=O)c4cc(C(F)(F)F)ccc4Cl)CC3)c12 [Example 19.65, Trans-2-chloro-N-(4-((4-methyl-1H-indazol-3-ylamino)methyl)cyclohexyl)-5-(trifluoromethyl) benzamide]",53 nM
4,"O=C(N[C@H]1CC[C@H](CNc2n[nH]c3ccc(Cl)cc23)CC1)c1cc(C(F)(F)F)ccc1Cl [Example 19.66, Trans-2-chloro-N-(4-((5-chloro-1H-indazol-3-ylamino)methyl)cyclohexyl)-5-(trifluoromethyl) benzamide]",62 nM
5,"COc1ccc2c(NC[C@H]3CC[C@H](NC(=O)c4cc(C(F)(F)F)ccc4Cl)CC3)n[nH]c2c1 [Example 19.68, Trans-2-chloro-N-(4-((6-methoxy-1H-indazol-3-ylamino)methyl)cyclohexyl)-5-(trifluoromethyl) benzamide]",32 nM
6,"Cc1cc(NC[C@H]2CC[C@H](NC(=O)c3cc(C(F)(F)F)ccc3Cl)CC2)ncc1Cl [Example 19.69, Trans-2-chloro-N-(4-((5-chloro-4-methylpyridin-2-ylamino)methyl)cyclohexyl)-5-(trifluoromethyl) benzamide]",22 nM
7,"Cn1nc(NC[C@H]2CC[C@H](NC(=O)c3cc(C(F)(F)F)ccc3Cl)CC2)c2ccccc21 [Example 19.70, Trans-2-chloro-N-(4-((1-methyl-1H-indazol-3-ylamino)methyl)cyclohexyl)-5-(trifluoromethyl) benzamide]",29 nM
8,"Cc1n[nH]c(NC[C@H]2CC[C@H](NC(=O)c3cc(C(F)(F)F)ccc3Cl)CC2)c1-c1ccccc1 [Example 19.71, Trans-2-chloro-N-(4-((3-methyl-4-phenyl-1H-pyrazol-5-ylamino)methyl)cyclohexyl)-5-(trifluoromethyl) benzamide]",140 nM
9,"Cc1ncc(Cl)cc1NC[C@H]1CC[C@H](NC(=O)c2cc(C(F)(F)F)ccc2Cl)CC1 [Example 19.73, Trans-2-chloro-N-(4-((5-chloro-2-methylpyridin-3-ylamino)methyl)cyclohexyl)-5-(trifluoromethyl) benzamide]",19 nM
10,"Cc1ccc2c(NC[C@H]3CC[C@H](NC(=O)c4cc(C(F)(F)F)ccc4Cl)CC3)n[nH]c2n1 [Example 19.74, Trans-2-chloro-N-(4-((6-methyl-1H-pyrazolo[3,4-b]pyridin-3-ylamino)methyl)cyclohexyl)-5-(trifluoromethyl) benzamide]",54 nM
11,"Cc1ncc(NC[C@H]2CC[C@H](NC(=O)c3cc(C(F)(F)F)ccc3Cl)CC2)cc1Cl [Example 19.75, Trans-2-chloro-N-(4-((5-chloro-6-methylpyridin-3-ylamino)methyl)cyclohexyl)-5-(trifluoromethyl) benzamide]",54 nM
12,"CCCc1[nH]nc(NC[C@H]2CC[C@H](NC(=O)c3cc(C(F)(F)F)ccc3Cl)CC2)c1Br [Example 19.76, Trans-N-(4-((4-bromo-5-propyl-1H-pyrazol-3-ylamino)methyl)cyclohexyl)-2-chloro-5-(trifluoromethyl) benzamide]",78 nM
13,"Cc1c(NC[C@H]2CC[C@H](NC(=O)c3cc(C(F)(F)F)ccc3Cl)CC2)n[nH]c1-c1ccccc1 [Example 19.79, Trans-2-chloro-N-(4-((4-methyl-5-phenyl-1H-pyrazol-3-ylamino)methyl)cyclohexyl)-5-(trifluoromethyl) benzamide]",37 nM

# Source: patent publication US8273900B2, “Organic compounds” (Novartis AG, priority 2008, dated 2012)
